Experimental data as given in patent EP4592286A1, “MACROCYCLIC NITROGEN-CONTAINING CROWN ETHER COMPOUND AND USE THEREOF AS PROTEIN KINASE INHIBITOR” (Artivila Biopharma, priority 2022, dated 2024).
pEC50, pIC50: −log10 of the molar value.

Legend:
Type in all cases: cell-based
JAK2 = biological target: T1, JAK2 (Mus musculus, UniProt Q62120); assay: JAKs cell activity test: JAK2_pSTAT5 in IL-3-induced BAF3 cells; conditions: pSTAT5, IL-3-induced BAF3 cells
T1 construct: endogenous in cells; host or cells: BAF3
Method: THP1 cells were collected by centrifugation, resuspended with 1×HBSS, counted and diluted to a certain cell density. They were inoculated in a 384-well plate and cultured in a saturated humidity incubator with 37 °C and 5% CO2. The compound (DMSO final volume of 0.3%) was added to THP1 cells (10 doses in duplicates) and cultured in a saturated humidity incubator with 37 °C and 5% CO2. hIL-4 was added to stimulate cells and cultured in a saturated humidity incubator with 37 °C and 5% CO2. The lysis solution was added and incubated at room temperature. According to the instructions of AlphaLISA SureFire Ultra p-STAT6 detection kit, the lysis solution was transferred to pSTAT6 detection system, and the ALPHA signal was read by PE Envision microplate reader. The inhibition rate Inh%=((DMSO-sample)/(DMSO-background))×100 was calculated. IC50 was obtained by fitting with GraphPad Prism non-linear regression equation, and y=Bottom+(Top-Bottom)/(1+10^((LogIC50-x)×hillslope)), where x was the concentration of the compound and y was the inhibition rate.
JAK2_pSTAT5 was tesed in IL-3-induced BAF3 cells according to the above steps, and JAK3_pSTAT5 was tested in IL-2-induced CTLL-2 cells (without serum stimulation) according to the above steps.

MV-4-11 cells = assay: CDK9 cell activity test (Cell Titer-GLO cell growth inhibition), MV-4-11; conditions: Homo sapiens, MV4-11, 72 hours
Method: (§1) In these experiments, the cell line MV-4-11 was cultured in IMDM culture solution (containing 100 U/mL penicillin and 0.1 g/L streptomycin), the cell line HCC1187 was cultured in RPMI-1640 culture solution (containing 100 U/mL penicillin and 0.1 g/L streptomycin) containing 10% fetal bovine serum, the cell line Mia Paca-2 was cultured in DMEM (containing 100 U/mL penicillin and 0.1 g/L streptomycin) containing 10% fetal bovine serum and 2.5% horse serum, and the cell line A375 was cultured in RPMI-1640 culture solution (containing 100 U/mL penicillin and 0.1 g/L streptomycin) containing 10% fetal bovine serum. All cells were cultured in a saturated humidity incubator with 37 °C and 5% CO2.
When MV-4-11 cells, HCC-1187 cells, Mia Paca-2 cells and A375 cells grew to 80% -90% confleuncy, they were digested with trypsin, resuspended, counted and diluted to a certain cell density with complete medium, and inoculated into 96-well plate at 100 µL/well. With complete medium as background control, they were cultured overnight in a saturated humidity incubator with 37°C and 5% CO2. The compound was diluted to 200-fold of the final concentration using DMSO, 3 µL of DMSO storage solution of the above compound was added to 197 µL of complete medium, 50 µL of compound diluted in medium was added to cells in each well, and cultivated in a saturated humidity incubator with 37°C and 5% CO2 for 72 hours. After 72 hours, the culture plate was placed at room temperature for equilibrium, and 40 µl of Cell Titer-GLO® reagent was added to each well. The cells were lysed by mixing evenly for 2 minutes using a shaker, incubated at room temperature for 60 minutes to stabilize the chemiluminescence signal, and the chemiluminescence was read by PE EnVision microtiter plate reader. The cell growth inhibition rate Inh%=(DMSO well - compound treatment well)/(DMSO well - background well)×100 was calculated, and the cell growth IC50 value was obtained by fitting with GraphPad Prism 5 .

HCC-1187 cells = assay: CDK9 cell activity test (Cell Titer-GLO cell growth inhibition), HCC1187; conditions: Homo sapiens, HCC1187, 72 h
Method: as §1
(§2) When MV-4-11 cells, HCC-1187 cells, Mia Paca-2 cells and A375 cells grew to 80% -90% confleuncy, they were digested with trypsin, resuspended, counted and diluted to a certain cell density with complete medium, and inoculated into 96-well plate at 100 µL/well. […] The cells were lysed by mixing evenly for 2 minutes using a shaker, incubated at room temperature for 60 minutes to stabilize the chemiluminescence signal, and the chemiluminescence was read by PE EnVision microtiter plate reader. The cell growth inhibition rate Inh%=(DMSO well - compound treatment well)/(DMSO well - background well)×100 was calculated, and the cell growth IC50 value was obtained by fitting with GraphPad Prism 5 .

Mia Paca-2 cells = assay: CDK9 cell activity test (Cell Titer-GLO cell growth inhibition), Mia Paca-2; conditions: Homo sapiens, 72 hours
Method: as §1, §2

A375 cells = assay: CDK9 cell activity test (Cell Titer-GLO cell growth inhibition), A375; conditions: Homo sapiens, A-375, 72 hours
Method: as §1, §2

wild-type LRRK2 = biological target: T2, wild-type LRRK2 (Homo sapiens, UniProt Q5S007); assay: detection of phosphorylated S935 in HEK293T overexpressing wild-type LRRK2; conditions: pS935, HEK293T overexpressing wild-type LRRK2, 1.5 hours
T2 construct: pCMV-flag-WT LRRK2 (full-length); expressed in transfected cells; host or cells: HEK293T
Method: Detection of phosphorylated S935 in HEK293T Overexpressing full-length LRRK2 (G2019S) or wild-type LRRK2
HEK293T cells was inoculated into a 6-well plate and cultured overnight. The next day, they were transiently transfected with plasmid pcDNA5-FRT/TO-FLAG LRRK2 (G2019S, full-length) or pCMV-flag-WT LRRK2 (full-length) by using Superfect transfection reagent and cultured at 37°C and 5% CO2 for 20-24 hours. The next day, cells were collected, resuspended at a density of 0.48×10^6 cells/ml, and inoculated into a 384-well plate at 50 microliters/well. Compound or DMSO solutions (volume ratio of 0.5%) were added by Tecan, and cultured at 37°C and 5% CO2 for 1.5 hours. After 1.5 hours, the supernatant was discarded, 50 microliters of 8% PFA were added in each well to fix the cells, and the cells were incubated at room temperature for 1 hour. The plate was washed with EL406 plate washer for three times, with 115 microliters of PBST per well, and the culture plate was patted to dryness. The cells were blocked with 50 microliters/well of Licor Odyssey blocking solution (0.1% Tween 20) at room temperature for 1.5 hours. The blocking solution was discarded and the culture plate was patted to dryness. 20 microliters of primary antibody (1:1000(pS935), diluted with Licor Odyssey buffer (0.1% Tween20)) was added into each well, and incubated at 4 °C overnight. The next day, the first antibody was discarded and washing was performed with PBST for five times. 20 microliters of secondary antibody (diluted with Licor Odyssey buffer (0.1% Tween20) at 1:500 and stained with DNA at 1:2000) were added into each well, and incubated at room temperature for 1 hour. The second antibody was discarded, and washing was performed for three times with PBST. The fluorescence intensity was measured by LICOR Odyssey imager Scanner, and the data was analyzed.

T2 sequence (Q5S007 whole entry): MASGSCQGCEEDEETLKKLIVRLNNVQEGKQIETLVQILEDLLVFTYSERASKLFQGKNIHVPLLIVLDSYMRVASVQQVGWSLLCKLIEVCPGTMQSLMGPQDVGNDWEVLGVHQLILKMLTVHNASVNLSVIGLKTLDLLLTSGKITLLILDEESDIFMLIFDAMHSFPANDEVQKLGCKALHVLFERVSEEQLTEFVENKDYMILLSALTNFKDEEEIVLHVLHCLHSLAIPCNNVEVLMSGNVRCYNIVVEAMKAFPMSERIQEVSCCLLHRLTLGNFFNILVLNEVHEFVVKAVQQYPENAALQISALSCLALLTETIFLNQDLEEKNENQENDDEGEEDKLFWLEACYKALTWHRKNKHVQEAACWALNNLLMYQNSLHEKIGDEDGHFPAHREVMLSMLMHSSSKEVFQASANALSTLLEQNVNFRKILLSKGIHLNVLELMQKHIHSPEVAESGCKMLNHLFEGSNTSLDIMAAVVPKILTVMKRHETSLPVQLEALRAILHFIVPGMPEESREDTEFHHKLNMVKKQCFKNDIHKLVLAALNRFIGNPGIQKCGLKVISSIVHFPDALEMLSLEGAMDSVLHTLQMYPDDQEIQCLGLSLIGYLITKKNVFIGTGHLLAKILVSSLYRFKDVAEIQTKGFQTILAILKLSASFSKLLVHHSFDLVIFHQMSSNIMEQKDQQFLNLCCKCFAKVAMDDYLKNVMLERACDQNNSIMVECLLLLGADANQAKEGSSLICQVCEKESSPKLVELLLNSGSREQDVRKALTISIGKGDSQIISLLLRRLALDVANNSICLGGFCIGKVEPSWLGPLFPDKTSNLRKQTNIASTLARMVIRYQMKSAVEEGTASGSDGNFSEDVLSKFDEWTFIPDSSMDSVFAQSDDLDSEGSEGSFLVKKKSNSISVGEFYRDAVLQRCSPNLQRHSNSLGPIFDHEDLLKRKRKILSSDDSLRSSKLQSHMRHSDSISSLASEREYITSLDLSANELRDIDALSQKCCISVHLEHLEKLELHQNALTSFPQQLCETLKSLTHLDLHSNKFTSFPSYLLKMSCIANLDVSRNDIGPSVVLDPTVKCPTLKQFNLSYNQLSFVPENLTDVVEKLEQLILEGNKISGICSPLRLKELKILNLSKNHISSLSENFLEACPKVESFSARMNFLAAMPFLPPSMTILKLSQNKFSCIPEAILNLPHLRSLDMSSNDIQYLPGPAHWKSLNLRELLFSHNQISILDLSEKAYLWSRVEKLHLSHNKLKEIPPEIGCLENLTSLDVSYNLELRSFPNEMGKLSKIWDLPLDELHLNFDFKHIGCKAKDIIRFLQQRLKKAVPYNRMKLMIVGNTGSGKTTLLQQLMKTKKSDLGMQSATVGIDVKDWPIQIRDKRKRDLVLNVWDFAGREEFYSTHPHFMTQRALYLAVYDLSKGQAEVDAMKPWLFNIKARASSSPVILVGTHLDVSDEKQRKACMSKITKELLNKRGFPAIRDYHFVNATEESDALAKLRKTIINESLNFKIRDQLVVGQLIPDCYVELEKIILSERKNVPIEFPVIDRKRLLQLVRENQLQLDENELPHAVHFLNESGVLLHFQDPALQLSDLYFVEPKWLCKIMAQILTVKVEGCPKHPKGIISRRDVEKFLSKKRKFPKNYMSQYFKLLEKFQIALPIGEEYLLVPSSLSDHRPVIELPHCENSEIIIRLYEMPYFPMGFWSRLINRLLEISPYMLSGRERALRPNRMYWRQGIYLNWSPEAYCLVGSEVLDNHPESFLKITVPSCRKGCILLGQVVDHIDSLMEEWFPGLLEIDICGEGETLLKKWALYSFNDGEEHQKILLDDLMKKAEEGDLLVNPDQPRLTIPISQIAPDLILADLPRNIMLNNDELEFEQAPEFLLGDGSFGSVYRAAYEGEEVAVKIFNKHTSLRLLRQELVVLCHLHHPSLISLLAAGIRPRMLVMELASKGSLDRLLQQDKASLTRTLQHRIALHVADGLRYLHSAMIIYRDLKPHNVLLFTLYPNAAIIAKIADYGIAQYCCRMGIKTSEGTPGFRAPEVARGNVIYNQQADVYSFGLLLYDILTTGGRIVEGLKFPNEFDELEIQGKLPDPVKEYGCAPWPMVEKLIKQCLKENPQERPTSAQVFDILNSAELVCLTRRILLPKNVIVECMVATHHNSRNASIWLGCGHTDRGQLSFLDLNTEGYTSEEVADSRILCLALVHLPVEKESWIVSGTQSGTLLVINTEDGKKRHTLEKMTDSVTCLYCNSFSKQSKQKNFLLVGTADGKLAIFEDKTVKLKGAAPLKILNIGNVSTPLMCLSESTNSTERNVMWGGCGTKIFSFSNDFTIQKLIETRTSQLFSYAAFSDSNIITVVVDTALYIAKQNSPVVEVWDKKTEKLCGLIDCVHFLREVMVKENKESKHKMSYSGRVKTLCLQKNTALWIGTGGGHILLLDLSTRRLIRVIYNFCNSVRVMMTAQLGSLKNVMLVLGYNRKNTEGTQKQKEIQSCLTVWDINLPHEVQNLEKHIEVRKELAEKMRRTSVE
T1 sequence (Q62120 whole entry): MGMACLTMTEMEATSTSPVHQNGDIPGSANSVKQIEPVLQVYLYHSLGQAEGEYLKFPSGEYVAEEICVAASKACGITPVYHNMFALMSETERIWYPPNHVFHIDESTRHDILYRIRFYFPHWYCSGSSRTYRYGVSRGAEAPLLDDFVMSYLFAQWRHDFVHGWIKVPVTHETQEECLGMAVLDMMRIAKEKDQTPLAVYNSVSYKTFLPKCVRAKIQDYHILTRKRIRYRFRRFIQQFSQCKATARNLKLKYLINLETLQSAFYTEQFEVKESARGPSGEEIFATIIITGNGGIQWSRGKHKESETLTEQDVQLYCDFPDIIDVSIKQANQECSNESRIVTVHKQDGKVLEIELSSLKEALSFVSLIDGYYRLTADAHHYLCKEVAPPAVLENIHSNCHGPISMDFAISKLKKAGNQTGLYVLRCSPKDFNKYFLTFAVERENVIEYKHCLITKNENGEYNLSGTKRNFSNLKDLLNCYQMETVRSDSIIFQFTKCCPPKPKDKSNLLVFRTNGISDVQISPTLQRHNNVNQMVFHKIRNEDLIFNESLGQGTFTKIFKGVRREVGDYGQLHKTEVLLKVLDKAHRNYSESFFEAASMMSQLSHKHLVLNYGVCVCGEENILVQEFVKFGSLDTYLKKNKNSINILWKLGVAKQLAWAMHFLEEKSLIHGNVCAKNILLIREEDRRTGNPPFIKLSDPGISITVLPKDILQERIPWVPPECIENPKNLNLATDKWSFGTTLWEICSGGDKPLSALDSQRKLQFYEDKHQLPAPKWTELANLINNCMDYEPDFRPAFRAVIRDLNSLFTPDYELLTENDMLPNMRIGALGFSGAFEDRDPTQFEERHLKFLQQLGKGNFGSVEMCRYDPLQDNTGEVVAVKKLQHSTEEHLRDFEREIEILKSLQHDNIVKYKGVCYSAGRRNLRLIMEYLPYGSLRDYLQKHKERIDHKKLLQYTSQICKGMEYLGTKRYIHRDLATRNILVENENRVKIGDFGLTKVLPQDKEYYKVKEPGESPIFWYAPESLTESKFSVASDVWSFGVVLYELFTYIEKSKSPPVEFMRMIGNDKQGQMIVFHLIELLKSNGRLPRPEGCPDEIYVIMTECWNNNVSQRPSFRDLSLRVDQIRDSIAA

CN1CCOCCOc2cc(Nc3nc(-c4cnn(C(CC#N)C5CCCC5)c4)c4cc[nH]c4n3)ccc2OCC1 (stereo not shown) [Example 26, 3-cyclopentyl-3-(4-(2-((7-methyl-2,3,6,7,8,9-hexahydro-5H-benzo[b][1,4,7]trioxa[10]azacyclododecan-13-yl)amino)-7H-pyrrolo[2,3-d]pytimidin-4-yl)-1H-pyrazol-1-yl)propionitrile]
pEC50 (JAK2): 5.30 to 6.30

CN1CCOCCOc2cc(Nc3ncc(F)c(-c4ccc(C(=O)NCC#N)cc4)n3)ccc2OCC1 [Example 16, N-(cyanomethyl)-4-(5-fluoro-2-((7-methyl-2,3,6,7,8,9-hexahydro-5H-benzo[b][1,4,7]trioxa[10]azacyclododecan-13-yl)amino)pyrimidin-4-yl)benzamide]
pIC50 (MV-4-11 cells): > 7.00
pIC50 (HCC-1187 cells; first HCC1187 column (c2)): 5.30 to 6.00
pIC50 (HCC-1187 cells; second HCC1187 column (c3)): 6.00 to 7.00
pIC50 (Mia Paca-2 cells): 6.00 to 7.00
pIC50 (A375 cells): 6.00 to 7.00

CCS(=O)(=O)N1CC(CC#N)(n2cc(-c3nc(Nc4ccc5c(c4)OCCN(C)CCO5)nc4[nH]ccc34)cn2)C1 [Example 28, 2-(1-(ethylsulfonyl)-3-(4-(2-((4-methyl-3,4,5,6-tetrahydro-2H-benzo[b][1,4,7]dioxazolin-9-yl)amino)-7H-pyrrolo[2,3-d]pytimidin-4-yl)-1H-pyrazol-1-yl)azetidin-3-yl) acetonitrile]
pEC50 (wild-type LRRK2): > 6.30
